Test systems include SW-620 colon; COLO 205 colon; NCI-H460 lung; CAKI-1 renal; SF-295 CNS; NCI-H522 lung; ACHN renal; SF-539 CNS; HCT-116 colon.
What all share (experiment): NCI-60 cell line screen, 48 h

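Assay format: 96-well plates, 48-hour exposure. GI50 = concentration required for 50% inhibition of growth. TGI marks complete inhibition of growth.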 Bounds are passed on as bounds.

With `CC(C)N1CC2CC(CN(C(=O)c3ccc(Cl)cc3)C2)C1`, the TGI with SW-620 colon, in the assay on COLO 205 colon, in the assay with NCI-H460 lung, in the assay with CAKI-1 renal, with SF-295 CNS and in the assay with NCI-H522 lung was greater than 100 µM each time. The TGI with ACHN renal and in the assay with SF-539 CNS was greater than 100 µM in each case.

For `OC1OCC(COc2cc(Cl)c(Cl)cc2Cl)OC1O` (stereo not drawn), the TGI in the assay with SW-620 colon was 47.7 µM; in the assay with COLO 205 colon, greater than 100 µM; in the assay with NCI-H460 lung, greater than 100 µM; in the assay on CAKI-1 renal, greater than 100 µM; in the assay with SF-295 CNS, greater than 100 µM; in the assay on HCT-116 colon, 42.1 µM. In addition, the TGI with NCI-H522 lung was 70.8 µM; with ACHN renal, greater than 100 µM; with SF-539 CNS, greater than 100 µM.

As to `COc1cc2c(cc1OCC(=O)Nc1ccc(Cl)cc1C(=O)c1ccccc1Cl)N=CC1CCCN1C2=O` (stereo not drawn), the GI50 in the assay on SW-620 colon is 11.8 µM; in the assay on COLO 205 colon it was 14.2 µM; in the assay on NCI-H460 lung, 11.1 µM; with CAKI-1 renal, 13.6 µM; in the assay on SF-295 CNS, 8.48 µM; with HCT-116 colon, 7.18 µM. For the same compound, the GI50 was 2.59 µM in the assay with NCI-H522 lung, 11.5 µM in the assay on ACHN renal and 19.6 µM with SF-539 CNS. The TGI with SW-620 colon was 25.8 µM; with COLO 205 colon, 30.8 µM; in the assay on NCI-H460 lung it was 27.1 µM; in the assay on CAKI-1 renal, 28.3 µM; in the assay with SF-295 CNS, 22.9 µM; in the assay on HCT-116 colon, 20.5 µM. Further, the values for the TGI in the assay with NCI-H522 lung, in the assay on ACHN renal and in the assay on SF-539 CNS were 7.17 µM, 23.8 µM and 33.9 µM, respectively.

On to `O=C1c2ccccc2C(=O)N1CC#CCO`, for which the TGI in the assay with SW-620 colon, in the assay with NCI-H460 lung, with CAKI-1 renal, with SF-295 CNS, in the assay with HCT-116 colon and in the assay with NCI-H522 lung was greater than 100 µM throughout. For the same compound, the TGI with ACHN renal and in the assay with SF-539 CNS was greater than 100 µM throughout.

Take `O=C(CC12C3C4C1C1C2C3C41CC(=O)NO)NO` (stereo not drawn): the TGI in the assay with SW-620 colon was greater than 100 µM; in the assay on COLO 205 colon, greater than 100 µM; in the assay with NCI-H460 lung, 62.5 µM; in the assay with CAKI-1 renal, greater than 100 µM; in the assay on SF-295 CNS it was greater than 100 µM; in the assay with HCT-116 colon, greater than 100 µM. The TGI was 77.4 µM in the assay on NCI-H522 lung, greater than 100 µM in the assay with ACHN renal and greater than 100 µM in the assay with SF-539 CNS.

Consider `CSc1ccc(N2C(=O)C3c4[nH]c5ccccc5c4C4CCC(C(C)(C)C)CC4C3C2=O)cc1` (stereo not drawn), for which the TGI in the assay on SW-620 colon was greater than 100 µM; in the assay on COLO 205 colon, 25.2 µM; in the assay with NCI-H460 lung it was 34.4 µM; in the assay with CAKI-1 renal it was 42.9 µM; in the assay on SF-295 CNS, 33.4 µM; in the assay on HCT-116 colon it was 18 µM. The TGI with NCI-H522 lung came out at 40.4 µM; in the assay with ACHN renal, 29.1 µM; with SF-539 CNS, 43.1 µM.

On to `O=C1CCC2(O)c3ccccc3C2Cc2ccccc21` (stereo not drawn), for which the TGI in the assay on SW-620 colon, with COLO 205 colon, in the assay on NCI-H460 lung, in the assay on SF-295 CNS, in the assay on HCT-116 colon and in the assay with ACHN renal was greater than 100 µM each time. In addition, the TGI with SF-539 CNS is greater than 100 µM.

Take `COc1ccc(C(C2=C(O)CC(C)OC2=O)C2=C(O)CC(C)OC2=O)cc1` (stereo not drawn): the TGI in the assay on SW-620 colon, with COLO 205 colon, with NCI-H460 lung, with CAKI-1 renal, in the assay with SF-295 CNS and in the assay on HCT-116 colon was greater than 100 µM each time. Moreover, the TGI in the assay with NCI-H522 lung, with ACHN renal and in the assay with SF-539 CNS was greater than 100 µM in each case.

On to `COc1ccc(N=NC2=C(O)CCC2=O)cc1`, for which the TGI with SW-620 colon, in the assay with COLO 205 colon, with NCI-H460 lung, with CAKI-1 renal, with SF-295 CNS and in the assay with HCT-116 colon was greater than 100 µM throughout. Also, the TGI in the assay on ACHN renal and in the assay with SF-539 CNS was greater than 100 µM each time.

Consider `CC1(C)CC(=O)C(CC2C(=O)CCCC2=O)C(=O)C1`, for which the TGI in the assay with SW-620 colon, in the assay with COLO 205 colon, with NCI-H460 lung, in the assay on CAKI-1 renal, with SF-295 CNS and with HCT-116 colon was greater than 100 µM in each case. For the same compound, the TGI with NCI-H522 lung, in the assay on ACHN renal and with SF-539 CNS was greater than 100 µM throughout.

For `CCO/C=C\C12CCCC1NC(c1ccccc1)(c1ccccc1)O2` (stereo not drawn), the TGI is greater than 100 µM in the assay on SW-620 colon; greater than 100 µM in the assay with NCI-H460 lung; 65.6 µM in the assay on CAKI-1 renal; greater than 100 µM in the assay on SF-295 CNS; greater than 100 µM with HCT-116 colon; 83.3 µM in the assay on NCI-H522 lung. For the same compound, the TGI in the assay with ACHN renal stood at 92.5 µM; in the assay on SF-539 CNS it was 66 µM.

Turning to `CCC(O)CCCCCCCCCCCCCCC(=O)O` (stereo not drawn), the TGI with SW-620 colon, in the assay with COLO 205 colon, in the assay with NCI-H460 lung, in the assay with CAKI-1 renal, with SF-295 CNS and in the assay with HCT-116 colon was greater than 100 µM each time. Moreover, the TGI with NCI-H522 lung, in the assay with ACHN renal and with SF-539 CNS was greater than 100 µM each time.

Regarding `O=C(Nc1ccc(Br)cc1)C(=O)C(C(=O)c1ccc(Cl)c(Cl)c1)C1OC(=O)c2ccccc21` (stereo not drawn), the TGI in the assay on SW-620 colon came out at 38.4 µM; in the assay on COLO 205 colon it was 34.8 µM; in the assay with NCI-H460 lung it was 38.2 µM; in the assay on CAKI-1 renal, 51.3 µM; with SF-295 CNS, 65.3 µM; in the assay with HCT-116 colon, 25.9 µM. Besides, the TGI in the assay with NCI-H522 lung is 47.9 µM; with ACHN renal, 35.5 µM.

With `COc1cc(/C=C2\[C@@H]3NC(Cc4c(OC)c(C)c(OC)c(OC)c43)C(=O)N2Cc2ccccc2)c(OC)c(C)c1OC`, the TGI with SW-620 colon is greater than 100 µM; in the assay with COLO 205 colon, 28.3 µM; in the assay with NCI-H460 lung, 60.7 µM; in the assay on CAKI-1 renal, 89 µM; in the assay with SF-295 CNS, greater than 100 µM; in the assay on HCT-116 colon it was greater than 100 µM. The TGI with NCI-H522 lung was 55 µM; in the assay with ACHN renal, greater than 100 µM; in the assay with SF-539 CNS it was greater than 100 µM.

Turning to `O=C(NC1CCC[C@H]1OC(=O)c1ccccc1)c1ccccc1` (stereo partly drawn), the TGI in the assay on SW-620 colon, with NCI-H460 lung, with CAKI-1 renal, with SF-295 CNS, in the assay on HCT-116 colon and with SF-539 CNS was greater than 100 µM throughout.

With `Cc1cc(-c2ccccc2)nc(Nc2cc3ccccc3[nH]2)n1`, the TGI with SW-620 colon, in the assay with COLO 205 colon, in the assay on NCI-H460 lung, in the assay on CAKI-1 renal, in the assay on SF-295 CNS and with HCT-116 colon was greater than 100 µM in each case. The TGI in the assay on NCI-H522 lung, in the assay on ACHN renal and in the assay on SF-539 CNS was greater than 100 µM throughout.

`NC(=O)NNC/C(Cl)=C(\Cl)C(=O)O`: the TGI in the assay on SW-620 colon, in the assay with COLO 205 colon, in the assay with NCI-H460 lung, in the assay on CAKI-1 renal, with SF-295 CNS and with HCT-116 colon was greater than 100 µM each time. Also, the TGI with NCI-H522 lung, in the assay on ACHN renal and with SF-539 CNS was greater than 100 µM throughout.

Consider `CCCCCCCCCC1CC(=O)OC2=C1C(=O)CCC2` (stereo not drawn), for which the TGI in the assay with SW-620 colon, in the assay on COLO 205 colon, in the assay on NCI-H460 lung, with CAKI-1 renal, in the assay on SF-295 CNS and in the assay on HCT-116 colon was greater than 100 µM throughout. Moreover, the TGI in the assay with NCI-H522 lung, with ACHN renal and with SF-539 CNS was greater than 100 µM in each case.

With `C/C(=N\N=C(N)N)C(CN1CCOCC1)C(c1ccccc1)c1c(O)c2ccccc2oc1=O` (stereo not drawn), the TGI in the assay on SW-620 colon, in the assay with COLO 205 colon, with NCI-H460 lung, with CAKI-1 renal, in the assay on SF-295 CNS and with HCT-116 colon was greater than 100 µM each time. Besides, the TGI with NCI-H522 lung, with ACHN renal and with SF-539 CNS was greater than 100 µM each time.

Take `C=CC1=C(C)C(/C=c2\[nH]/c(=C/c3[nH]c(CC4NC(=O)C(C)/C4=C\C)c(C)c3CCC(=O)O)c(CC(=O)O)c2C)=NC1=O` (stereo not drawn): the TGI in the assay with SW-620 colon, in the assay with COLO 205 colon, with NCI-H460 lung, with CAKI-1 renal, in the assay with SF-295 CNS and in the assay on HCT-116 colon was greater than 100 µM each time. For the same compound, the TGI in the assay with NCI-H522 lung, with ACHN renal and with SF-539 CNS was greater than 100 µM each time.

On to `CC1C(c2ccccc2)N(C)C(c2ccccc2)C(C)C1(O)c1ccccc1` (stereo not drawn), for which the TGI was greater than 100 µM with SW-620 colon; 58.7 µM in the assay with COLO 205 colon; greater than 100 µM in the assay with NCI-H460 lung; greater than 100 µM in the assay with CAKI-1 renal; greater than 100 µM in the assay on SF-295 CNS; greater than 100 µM with HCT-116 colon. Further, the TGI in the assay on NCI-H522 lung, in the assay with ACHN renal and with SF-539 CNS was greater than 100 µM in each case.

Values taken from PubChem BioAssay (NCI).
